Experimental data as given in patent US20170189372A1, “USE OF SUBSTITUTED CHROMAN COMPOUNDS” (INSTYTUT BIOLOGII MEDYCZNEJ, priority 2014, published 2017).

What was measured:
[1] = test system: reporter cell line for IL-2 (EL-4 cells); assay: FCC primary screening with IL-2 reporter cells; format: cell-based, mouse; conditions: relative viability×(relative fluorescence−100); PMA and ionomycin activated, compound 0.4 μg/ml, 18 h
Procedure: (§1) Development of reporter cell lines was described previously (Ulleras, E., D. Trzaska, et al. (2005); “Development of the “Cell Chip”: a new in vitro alternative technique for immunotoxicity testing”, Toxicology 206(2): 245-56). Briefly, EL-4 cells were stably transfected with transgene consisting of promoter regions from mouse β-actin, interleukin-2 (IL-2), interleukin-4 (IL-4), interferon-γ (IFN-γ), and interleukin-10 (IL-10) and ORF for EGFP. Reporter cells were cultured at density 5×10^5-1×10^6 cells/ml in a humidified atmosphere with 5% CO2 at 37° C. in RPMI 1640 with Glutamax supplemented with 20% FCS and 0.5 μg/ml G418.
(§2) When applicable, cells and reagents handling was performed by JANUS Automated Workstation (PerkinElmer, Waltham, Mass., USA). Cells were seeded at a density of 5×10^4 per well in 96-well plates. In the primary screening reporter cells for IL-2 activated with PMA (50 ng/ml) and ionomycin (1 μM) were seeded in a 96-well plate and incubated with compounds from the chemical library in a total volume of 100 μL at 37° C. in a humidified atmosphere with 5% CO2 for 18 h. Concentration of compounds was 0.4 μg/ml. The final DMSO concentration was 0.2%, DMSO is not cytotoxic towards EL-4 reporter cells at this concentration. Control samples consisted of cells in medium with 0.2% DMSO with PMA (50 ng/ml) and ionomycin (1 μM). Following incubation cells were analyzed by flow cytometry. Viability was assessed in parallel to the level of EGFP-mediated fluorescence.
Selection of compounds was based on FCC parameters calculated using the following formula:
FCC parameter=relative viability×(relative fluorescence−100)
Compounds after primary screening were considered to be hits when FCC parameter calculated after primary screening was ≦−5000. After secondary screening area under the curve (A) of FCC parameter versus relative concentration was calculated (maximum concentration used, i.e. 50 μg/ml, was assumed to be 1).

[2] = test system: reporter cell line for β-actin (EL-4 cells); assay: FCC test, expanded version, β-actin reporter cell line; format: cell-based, mouse; conditions: PMA and ionomycin, 1.56 to 50 μg/ml, 50 μg/ml assumed to be 1
Procedure: as §1
(§3) Compounds after primary screening were considered to be hits when FCC parameter calculated after primary screening was ≦−5000. After secondary screening area under the curve (A) of FCC parameter versus relative concentration was calculated (maximum concentration used, i.e. 50 μg/ml, was assumed to be 1). […]
(§4) Flavonoids selected after preliminary screening were undergoing FCC testing using 5 reporter cell lines: for β-actin, interleukin-2 (IL-2), interleukin-4 (IL-4), interferon-γ (IFN-γ) and interleukin-10 (IL-10). The tested concentrations were in the range from 1.56 to 50 μg/ml.
(§5) Using flow cytometry mean fluorescence intensity (columns, left Y axis) and cell viability (dots, the right Y-axis) was determined for all the experimental points and normalized relative to the control—cells incubated with medium with PMA and ionomycin. The data is the mean of the three experiments ±SEM. The statistical significance of differences between means were determined: * p<0.05, ** p<0.01, *** p<0.001 versus control. Values above the graph represent the area under the curve showing the relationship of the FCC parameter and the relative compound concentration.

[3] = test system: reporter cell line for interleukin-2 (EL-4 cells); assay: FCC test, expanded version, IL-2 reporter cell line; format: cell-based, mouse; conditions: for The area under the curve showing the relationship between the FCC parameter and compound concentration, IL-2: IL-2 reporter line, PMA and ionomycin, 1.56 to 50 μg/ml, 50 μg/ml assumed to be 1
Procedure: as §1, §3, §4, §5

[4] = test system: reporter cell line for interleukin-4 (EL-4 cells); assay: FCC test, expanded version, IL-4 reporter cell line; format: cell-based, mouse; conditions: for The area under the curve showing the relationship between the FCC parameter and compound concentration, IL-4: IL-4 reporter line, PMA and ionomycin, 1.56 to 50 μg/ml, 50 μg/ml assumed to be 1
Procedure: as §1, §3, §4, §5

[5] = test system: reporter cell line for interferon-γ (EL-4 cells); assay: FCC test, expanded version, IFN-γ reporter cell line; format: cell-based, mouse; conditions: PMA and ionomycin, 1.56 to 50 μg/ml, 50 μg/ml assumed to be 1
Procedure: as §1, §3, §4, §5

[6] = test system: reporter cell line for interleukin-10 (EL-4 cells); assay: FCC test, expanded version, IL-10 reporter cell line; format: cell-based, mouse; conditions: IL-10 reporter line; PMA and ionomycin; 1.56 to 50 μg/ml, 50 μg/ml assumed to be 1
Procedure: as §1, §3, §4, §5

[7] = test system: IL-2 production by Jurkat cells; assay: ELISA for IL-2 in Jurkat cells; format: cell-based; conditions: for inhibition at 10 µg/mL / inhibition at 50 µg/mL: Homo sapiens, Jurkat cells, PMA and ionomycin, 24 hours; for inhibition at 10 µg/mL: 10 μg/ml; for inhibition at 50 µg/mL: 50 μg/ml
Procedure: Jurkat cells were seeded in 48-well plates at a concentration of 1 million/ml. Cells activated with PMA (50 ng/ml) and ionomycin (1 uM) or resting were incubated with 50 selected flavonoids in a concentration of 10 μg/ml and 50 μg/ml for 24 hours in a humidified atmosphere with 5% CO 2 at 37° C. As a control, the respective cells in the medium or in a medium with PMA and ionomycin were employed. After incubation, cells were centrifuged (8 minutes, 1300 rpm), and the cell-free supernatants were stored at −20° C. until measurements. IL-2 was assessed using a commercially available ELISA kits according to the manufacturer's instructions. Each experiment was repeated 3 times.
FCC assay and ELISA assay were repeated three times. Relative data were presented as the means±SEM. […] Statistical significance of differences observed in both assays was tested with ANOVA followed by post hoc Dunnett test using GraphPad software (La Jolla, Calif., USA). In statistical analysis non-relative data were used

reporter cell line EL-4 = assay: Viability of reporter cells in FCC assay; format: cell-based, mouse; conditions: at concentrations up to 25 mg/ml
Procedure: as §2
Using flow cytometry mean fluorescence intensity (columns, left Y axis) and cell viability (dots, the right Y-axis) was determined for all the experimental points and normalized relative to the control—cells incubated with medium with PMA and ionomycin. The data is the mean of the three experiments ±SEM. The statistical significance of differences between means were determined: * p<0.05, ** p<0.01, *** p<0.001 versus control. […]

Compound | FCC parameter (IL-2 screening) [1] | The area under the curve showing the relationship between the FCC parameter and compound concentration, AKT [2] | The area under the curve showing the relationship between the FCC parameter and compound concentration, IL-2 [3] | The area under the curve showing the relationship between the FCC parameter and compound concentration, IL-4 [4] | The area under the curve showing the relationship between the FCC parameter and compound concentration, IFN [5] | The area under the curve showing the relationship between the FCC parameter and compound concentration, IL-10 [6] | inhibition at 10 µg/mL [7] | inhibition at 50 µg/mL [7] | inhibition of PMA and ionomycin induced EGFP-mediated fluorescence (in words) ([3]; FCC test, reporter cell lines not specified, judged by area under the curve) | decrease in EGFP-mediated fluorescence ([3]; reporter cell line for IL-2, 25 μg/ml) | decrease in EGFP-mediated fluorescence ([4]; reporter cell line for IL 4, 25 μg/ml) | inhibition of PMA and ionomycin induced IL-2 production by ELISA (in words) ([7]; concentration not given) | cytotoxicity in the reporter cell line EL-4 (reporter cell line EL-4)
COc1cccc2c1C(=O)CC(c1ccccc1)O2 (stereo not drawn) [Compound 9, 5-methoxy-2-phenylchroman-4-one] | −5636 | 3861 | −3872 | 675 | −4745 | −1472 | 43% | 92% |  |  |  |  | 
COc1cccc(C2CC(=O)c3ccccc3O2)c1OC (stereo not drawn) [Compound 10, 2-(2,3-dimethoxyphenyl)chroman-4-one] | −6685 | 118 | −2244 | −946 | −3142 | −1336 | 32% | 97% |  |  |  |  | 
COc1ccc2c(c1)OC(c1ccccc1)CC2=O (stereo not drawn) [Compound 11, 7-methoxy-2-phenylchroman-4-one] | −6917 | −754 | −3670 | −1499 | −3975 | −777 | 35% | 97% |  |  |  |  | 
CC(=O)Oc1cc2c(cc1Cl)C(C)(C)CC(C)(c1cc(Cl)c(OC(C)=O)cc1OC(C)=O)O2 (stereo not drawn) [Compound 12, 2-(2,4-diacetyloxy-5-chlorophenyl)-6-chloro-2,4,4-trimethylchroman-7-yl acetate] | −7615 | −2936 |  |  |  |  | 100% | 83% | highest inhibition | more than 90% | more than 90% | strongly inhibited | not cytotoxic
